The values below come from patent US20090181990A1 (priority 2007, published 2009).

Common to all, as to type: physicochemical
The nature of data set [1]: Amorphous pemetrexed disodium stability study (HPLC purity, moisture content, XRD on storage). More on the design: key to HPLC: % chromatographic purity by HPLC area normalisation. The conditions noted are these: for HPLC: in % (unit assumed). The procedure: (§1) X-ray diffraction data were acquired using a PANalyticalX′pert PRO X-ray diffractometer model.
(§2) System description: Kα1=1.54060 A^0, voltage 45 kV, current 40 mA, Xray source: Cu.
(§3) Experiment parameters: pattern measured between 2θ=4° and 2θ=40° with 0.05° increments; count time was 0.5 second per increment.
(§4) The water content measurements were carried out using a METTLER TOLEDO Model: DL31Karl Fischer Titrator according to standard procedures.
(§5) Purity by HPLC was performed by Waters 2690 Seperations module.system.
The samples were packed in double seal poly bags followed by Aluminium bag sealed under nitrogen with oxygen trapper and stored • at 2-8° C. for a period of six months • 25° C./60% relative humidity (RH) for a period of six months.
The purity of the sample was checked by HPLC and XRD was recorded for the samples stored under these conditions after 2 months and 6 months.
Inject 20 μl of test solution and calculate the chromatographic purity by area normalisation method.

The nature of data set [2]: Bulk and tapped density (tap density tester, USP). The text has this:
As referred to herein the term “bulk density” is the weight of the sample divided by its non packed volume and the term “tapped density” is the weight of the sample divided by its packed volume. The units of bulk density are grams (gm) per cubic centimeter (cc) or grams (gm) per milliliter (ml). A powder having low bulk density will be lightweight, fluffy and have greater surface area. A powder with high density will be much more compact and dense, exist as harder particles and will result in a more flowable product compared to powder with low bulk density. Bulk and tapped densities were measured using Electrolab ETD-1020 tap density tester (USP).

Data set [3] can be described thus: Material kept outside at room temperature for 15 hrs (XRD, water content, HPLC purity). The conditions noted are these: after room temperature. The method, then:
as §1, §4, §5
The material was kept outside at room temperature for 15 hrs.

Data set [4] is described as follows: Conservation of amorphous form under various storage conditions (XRD, moisture content). The procedure:
as §1, §2, §3, §4

[5] abbreviates: 2-8° C. or 25° C./60% relative humidity, six months.
[6] abbreviates: 40° C./75% relative humidity for 7 days, double polythene bags in a fiber drum.
The mark [7] stands for this setting: 80° C. for 7 days, open petriplate.
[8] abbreviates: Room temperature for 24 hours, open petriplate.
The mark [9] stands for this setting: Room temperature for 40 days, double polythene bags.

Regarding `Nc1nc2[nH]cc(CCc3ccc(C(=O)NC(CCC(=O)[O-])C(=O)[O-])cc3)c2c(=O)[nH]1.[Na+].[Na+]` (stereo not shown) [Amorphous Form of Pemetrexed Disodium, with Moisture Content] [listing 1 of 2 here], the “% Moisture Content” value stood at 8.96% in data set [1] (2-8° C., 2 Months); 9.39% in data set [1] (2-8° C., 6 Months); 9.04% in data set [1] (2-8° C., Initial); 8.39% in data set [1] (25° C. RH 60%, 2 Months); 8.85% in data set [1] (25° C. RH 60%, 6 Months); 9.04% in data set [1] (25° C. RH 60%, Initial). In addition, the HPLC in data set [1] (2-8° C., 2 Months) is given as 99.72; in data set [1] (2-8° C., 6 Months), 99.62; in data set [1] (2-8° C., Initial) it was 99.68; in data set [1] (25° C. RH 60%, 2 Months), 99.72; in data set [1] (25° C. RH 60%, 6 Months), 99.67; in data set [1] (25° C. RH 60%, Initial), 99.68. Further, the XRD entry in data set [1] (2-8° C., 6 Months) is on record as “Amorphous”; in data set [1] (2-8° C., Initial), “Amorphous”; in data set [1] (25° C. RH 60%, 6 Months) it was “Amorphous”; in data set [1] (25° C. RH 60%, Initial), “Amorphous”.
Consider `Nc1nc2[nH]cc(CCc3ccc(C(=O)NC(CCC(=O)[O-])C(=O)[O-])cc3)c2c(=O)[nH]1.[Na+].[Na+]` (stereo not shown) [Amorphous Form of Pemetrexed Disodium, with Moisture Content] [listing 2 of 2 here], for which the “% Moisture Content” value in data set [1] (2-8° C., 2 Months) came to 11.68%; in data set [1] (2-8° C., 6 Months), 12.31%; in data set [1] (2-8° C., Initial), 15.92%; in data set [1] (25° C. RH 60%, 2 Months), 10.26%; in data set [1] (25° C. RH 60%, 6 Months), 11.45%; in data set [1] (25° C. RH 60%, Initial), 15.92%. The XRD entry in data set [1] (2-8° C., 6 Months) was “Amorphous”. The HPLC in data set [1] (2-8° C., 6 Months) is 99.59; in data set [1] (2-8° C., Initial), 99.66; in data set [1] (25° C. RH 60%, 6 Months), 99.63; in data set [1] (25° C. RH 60%, Initial) it was 99.66.
In data set [2], `Nc1nc2[nH]cc(CCc3ccc(C(=O)NC(CCC(=O)[O-])C(=O)[O-])cc3)c2c(=O)[nH]1.[Na+].[Na+]` (stereo not shown) [Example 2, amorphous pemetrexed disodium] gave a Bulk density of 0.226 gm/ml and a Tapped density of 0.369 gm/ml.
In the case of `Nc1nc2[nH]cc(CCc3ccc(C(=O)NC(CCC(=O)[O-])C(=O)[O-])cc3)c2c(=O)[nH]1.[Na+].[Na+]` (stereo not shown) [Example 3, amorphous pemetrexed disodium], in data set [3], the HPLC purity was found to be 99.66%, the Water content was 16% and the “X-ray diffraction (form)” value is “amorphous form is retained”.
Turning to `Nc1nc2[nH]cc(CCc3ccc(C(=O)NC(CCC(=O)[O-])C(=O)[O-])cc3)c2c(=O)[nH]1.[Na+].[Na+]` (stereo not shown) [amorphous form of pemetrexed disodium, pemetrexed disodium], in data set [1] (setting [5]), the “amorphous form after storage (XRD)” value is “amorphous form is retained”. The “impurity formation / chemical purity after storage (HPLC)” value in data set [1] (setting [5]) is on record as “no significant formation of impurities”. For the same compound, the “% Moisture Content after storage” value in data set [4] (setting [6]) is reported as 18.27%; in data set [4] (setting [7]) it was 6.24%; in data set [4] (setting [8]), 20.03%; in data set [4] (setting [9]), 18.56. Further, the XRD result in data set [4] (setting [6]), in data set [4] (setting [7]), in data set [4] (setting [8]) and in data set [4] (setting [9]) was “Amorphous form” each time. Moreover, the “% Moisture Content Initial” value in data set [4] (before storage) is recorded as 5.48%.
